Test results published in US20230085307A1, “PYRIDAZINONE COMPOUND AND HERBICIDE” (NISSAN CHEMICAL CORPORATION, priority 2019, published 2023).

Legend:
Italian ryegrass [1] = assay: Test Example 5: herbicidal effect by foliage application, plastic box (Table 20, symbol K); type: in vivo, Italian ryegrass (Lolium multiflorum); settings: foliage application, 320 g/ha, three weeks after application
Summary of the method: (§1)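 Plants sown in sterilized diluvial soil and grown 14 days in a greenhouse at 25° C to 30° C, then sprayed on the foliage with the compound's emulsion diluted in water to a predetermined herbicide amount. Injury to weeds and crops scored three weeks after application on a visual rating scale.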

wild oat [2] = assay: Test Example 5: herbicidal effect by foliage application, plastic box (Table 20, symbol I); type: in vivo, wild oat (Avena fatua); settings: foliage application, 320 g/ha, three weeks after application
Summary of the method: as §1

chickweed [3] = assay: Test Example 5: herbicidal effect by foliage application, plastic box (Table 20, symbol P); type: in vivo, common chickweed (Stellaria media); settings: foliage application, 320 g/ha, three weeks after application
Summary of the method: as §1

barnyard grass [4] = assay: Test Example 4: herbicidal effect by soil treatment (Table 19, symbol H); type: in vivo, barnyard grass (Echinochloa crus-galli); settings: amount of applied herbicide 320 g/ha
Summary of the method: (§2)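 Three weeks of greenhouse growth at 25° C. to 30° C. followed a uniform surface spray of water-diluted emulsion at a predetermined herbicide amount. Seeds had been sown beforehand under about 1.5 cm of sterilized diluvial soil. Grading followed criteria set out in an earlier test.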

southern crabgrass [5] = assay: Test Example 4: herbicidal effect by soil treatment (Table 19, symbol F); type: in vivo, southern crabgrass (Digitaria ciliaris); settings: amount of applied herbicide 320 g/ha
Summary of the method: as §2

redroot pigweed [6] = assay: Test Example 5: herbicidal effect by foliage application, plastic box (Table 20, symbol N); type: in vivo, redroot pigweed (Amaranthus retroflexus); settings: foliage application, 320 g/ha, three weeks after application
Summary of the method: as §1

green foxtail [7] = assay: Test Example 5: herbicidal effect by foliage application, plastic box (Table 20, symbol G); type: in vivo, green foxtail (Setaria viridis); settings: foliage application, 320 g/ha, three weeks after application
Summary of the method: as §1

false cleavers [8] = assay: Test Example 5: herbicidal effect by foliage application, plastic box (Table 20, symbol Q); type: in vivo, false cleavers (Galium spurium); settings: foliage application, 320 g/ha, three weeks after application
Summary of the method: as §1

Italian ryegrass [9] = assay: Test Example 4: herbicidal effect by soil treatment (Table 19, symbol K); type: in vivo, Italian ryegrass (Lolium multiflorum); settings: amount of applied herbicide 320 g/ha
Summary of the method: as §2

Chinese sprangletop = assay: Test Example 3: herbicidal effect by foliage application, Wagner pot (Table 18, symbol D); type: in vivo, chinese sprangletop (Leptochloa chinensis); settings: 320 g/ha
Summary of the method: (§3)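 Plants were sown in alluvial soil held under 0.1–0.5 cm standing water and grown 14 days in a greenhouse at 25–30 °C. An emulsifiable formulation, water-diluted to the set dose, was then sprayed onto the foliage, and effects were scored three weeks later using previously defined criteria.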

velvetleaf [10] = assay: Test Example 5: herbicidal effect by foliage application, plastic box (Table 20, symbol M); type: in vivo, velvetleaf (Abutilon theophrasti); settings: foliage application, 320 g/ha, three weeks after application
Summary of the method: as §1

false cleavers [11] = assay: Test Example 4: herbicidal effect by soil treatment (Table 19, symbol Q); type: in vivo, false cleavers (Galium spurium); settings: amount of applied herbicide 320 g/ha
Summary of the method: as §2

wild oat [12] = assay: Test Example 4: herbicidal effect by soil treatment (Table 19, symbol I); type: in vivo, wild oat (Avena fatua); settings: amount of applied herbicide 320 g/ha
Summary of the method: as §2

blackgrass [13] = assay: Test Example 4: herbicidal effect by soil treatment (Table 19, symbol J); type: in vivo, blackgrass (Alopecurus myosuroides); settings: amount of applied herbicide 320 g/ha
Summary of the method: as §2

southern crabgrass [14] = assay: Test Example 5: herbicidal effect by foliage application, plastic box (Table 20, symbol F); type: in vivo, southern crabgrass (Digitaria ciliaris); settings: foliage application, 320 g/ha, three weeks after application
Summary of the method: as §1

persian speedwell [15] = assay: Test Example 4: herbicidal effect by soil treatment (Table 19, symbol R); type: in vivo, Persian speedwell (Veronica persica); settings: amount of applied herbicide 320 g/ha
Summary of the method: as §2

chickweed [16] = assay: Test Example 4: herbicidal effect by soil treatment (Table 19, symbol P); type: in vivo, common chickweed (Stellaria media); settings: amount of applied herbicide 320 g/ha
Summary of the method: as §2

green foxtail [17] = assay: Test Example 4: herbicidal effect by soil treatment (Table 19, symbol G); type: in vivo, green foxtail (Setaria viridis); settings: amount of applied herbicide 320 g/ha
Summary of the method: as §2

rice flat sedge = assay: Test Example 3: herbicidal effect by foliage application, Wagner pot (Table 18, symbol E); type: in vivo, rice flat sedge (Cyperus iria); settings: 320 g/ha
Summary of the method: as §3

barnyard grass [18] = assay: Test Example 5: herbicidal effect by foliage application, plastic box (Table 20, symbol H); type: in vivo, barnyard grass (Echinochloa crus-galli); settings: foliage application, 320 g/ha, three weeks after application
Summary of the method: as §1

lambsquarters [19] = assay: Test Example 4: herbicidal effect by soil treatment (Table 19, symbol O); type: in vivo, lambsquarters (Chenopodium album); settings: amount of applied herbicide 320 g/ha
Summary of the method: as §2

velvetleaf [20] = assay: Test Example 4: herbicidal effect by soil treatment (Table 19, symbol M); type: in vivo, velvetleaf (Abutilon theophrasti); settings: amount of applied herbicide 320 g/ha
Summary of the method: as §2

windgrass [21] = assay: Test Example 5: herbicidal effect by foliage application, plastic box (Table 20, symbol L); type: in vivo, windgrass (Apera spica-venti); settings: foliage application, 320 g/ha, three weeks after application
Summary of the method: as §1

windgrass [22] = assay: Test Example 4: herbicidal effect by soil treatment (Table 19, symbol L); type: in vivo, windgrass (Apera spica-venti); settings: amount of applied herbicide 320 g/ha
Summary of the method: as §2

barnyard grass [23] = assay: Test Example 3: herbicidal effect by foliage application, Wagner pot (Table 18, symbol H); type: in vivo, barnyard grass (Echinochloa crus-galli); settings: 320 g/ha
Summary of the method: as §3

lambsquarters [24] = assay: Test Example 5: herbicidal effect by foliage application, plastic box (Table 20, symbol O); type: in vivo, lambsquarters (Chenopodium album); settings: foliage application, 320 g/ha, three weeks after application
Summary of the method: as §1

persian speedwell [25] = assay: Test Example 5: herbicidal effect by foliage application, plastic box (Table 20, symbol R); type: in vivo, Persian speedwell (Veronica persica); settings: foliage application, 320 g/ha, three weeks after application
Summary of the method: as §1

redroot pigweed [26] = assay: Test Example 4: herbicidal effect by soil treatment (Table 19, symbol N); type: in vivo, redroot pigweed (Amaranthus retroflexus); settings: amount of applied herbicide 320 g/ha
Summary of the method: as §2

blackgrass [27] = assay: Test Example 5: herbicidal effect by foliage application, plastic box (Table 20, symbol J); type: in vivo, blackgrass (Alopecurus myosuroides); settings: foliage application, 320 g/ha, three weeks after application
Summary of the method: as §1

| SMILES | herbicidal effect grade, K: Italian ryegrass (Italian ryegrass [1]) | herbicidal effect grade, I: wild oat (wild oat [2]) | herbicidal effect grade, P: chickweed (chickweed [3]) | herbicidal effect rating, H: barnyard grass (barnyard grass [4]) | herbicidal effect rating, F: southern crabgrass (southern crabgrass [5]) | herbicidal effect grade, N: redroot pigweed (redroot pigweed [6]) | herbicidal effect grade, G: green foxtail (green foxtail [7]) | herbicidal effect grade, Q: false cleavers (false cleavers [8]) | herbicidal effect rating, K: Italian ryegrass (Italian ryegrass [9]) | herbicidal effect on D (Chinese sprangletop), rating 0-5 (Chinese sprangletop) | herbicidal effect grade, M: velvetleaf (velvetleaf [10]) | herbicidal effect rating, Q: false cleavers (false cleavers [11]) | herbicidal effect rating, I: wild oat (wild oat [12]) | herbicidal effect rating, J: blackgrass (blackgrass [13]) | herbicidal effect grade, F: southern crabgrass (southern crabgrass [14]) | herbicidal effect rating, R: persian speedwell (persian speedwell [15]) | herbicidal effect rating, P: chickweed (chickweed [16]) | herbicidal effect rating, G: green foxtail (green foxtail [17]) | herbicidal effect on E (rice flat sedge), rating 0-5 (rice flat sedge) | herbicidal effect grade, H: barnyard grass (barnyard grass [18]) | other results |
| --- | --- | --- | --- | --- | --- | --- | --- | --- | --- | --- | --- | --- | --- | --- | --- | --- | --- | --- | --- | --- | --- |
| Cc1nn(C)c(=O)c(-c2c(-c3ccc(F)c(F)c3)sc3ccccc23)c1O [1-046] | 3 (Herbicidal rate of 40% or more and less than 70%) | 3 (Herbicidal rate of 40% or more and less than 70%) | 5 (Herbicidal rate of 90% or more (almost completely withered)) | 0 (Herbicidal rate of 5% or less (almost no effect)) | 0 (Herbicidal rate of 5% or less (almost no effect)) | 5 (Herbicidal rate of 90% or more (almost completely withered)) | 4 (Herbicidal rate of 70% or more and less than 90%) | 5 (Herbicidal rate of 90% or more (almost completely withered)) | 0 (Herbicidal rate of 5% or less (almost no effect)) | 0 (Herbicidal rate of 5% or less (almost no effect)) | 5 (Herbicidal rate of 90% or more (almost completely withered)) | 5 (Herbicidal rate of 90% or more (almost completely withered)) | 0 (Herbicidal rate of 5% or less (almost no effect)) | 0 (Herbicidal rate of 5% or less (almost no effect)) | 4 (Herbicidal rate of 70% or more and less than 90%) | 5 (Herbicidal rate of 90% or more (almost completely withered)) | 5 (Herbicidal rate of 90% or more (almost completely withered)) | 0 (Herbicidal rate of 5% or less (almost no effect)) | 5 (Herbicidal rate of 90% or more (almost completely withered)) | 4 (Herbicidal rate of 70% or more and less than 90%) | herbicidal effect rating, O: lambsquarters (lambsquarters [19]): 0 (Herbicidal rate of 5% or less (almost no effect)); herbicidal effect rating, M: velvetleaf (velvetleaf [20]): 0 (Herbicidal rate of 5% or less (almost no effect)); herbicidal effect grade, L: windgrass (windgrass [21]): 0 (Herbicidal rate of 5% or less (almost no effect)); herbicidal effect rating, L: windgrass (windgrass [22]): 0 (Herbicidal rate of 5% or less (almost no effect)); herbicidal effect on H (barnyard grass), rating 0-5 (barnyard grass [23]): 3 (Herbicidal rate of 40% or more and less than 70%); herbicidal effect grade, O: lambsquarters (lambsquarters [24]): 4 (Herbicidal rate of 70% or more and less than 90%); herbicidal effect grade, R: persian speedwell (persian speedwell [25]): 5 (Herbicidal rate of 90% or more (almost completely withered)); herbicidal effect rating, N: redroot pigweed (redroot pigweed [26]): 0 (Herbicidal rate of 5% or less (almost no effect)); herbicidal effect grade, J: blackgrass (blackgrass [27]): 0 (Herbicidal rate of 5% or less (almost no effect)) |
| COc1cccc(-c2sc3ccccc3c2-c2c(O)c(C)nn(C)c2=O)c1F [1-048] | 0 (Herbicidal rate of 5% or less (almost no effect)) | 0 (Herbicidal rate of 5% or less (almost no effect)) | 5 (Herbicidal rate of 90% or more (almost completely withered)) | 0 (Herbicidal rate of 5% or less (almost no effect)) | 0 (Herbicidal rate of 5% or less (almost no effect)) | 0 (Herbicidal rate of 5% or less (almost no effect)) | 0 (Herbicidal rate of 5% or less (almost no effect)) | 0 (Herbicidal rate of 5% or less (almost no effect)) | 0 (Herbicidal rate of 5% or less (almost no effect)) | 5 (Herbicidal rate of 90% or more (almost completely withered)) | 0 (Herbicidal rate of 5% or less (almost no effect)) | 0 (Herbicidal rate of 5% or less (almost no effect)) | 0 (Herbicidal rate of 5% or less (almost no effect)) | 0 (Herbicidal rate of 5% or less (almost no effect)) | 0 (Herbicidal rate of 5% or less (almost no effect)) | 1 (Herbicidal rate of 5% or more and less than 20%) | 3 (Herbicidal rate of 40% or more and less than 70%) | 0 (Herbicidal rate of 5% or less (almost no effect)) | 4 (Herbicidal rate of 70% or more and less than 90%) | 0 (Herbicidal rate of 5% or less (almost no effect)) | herbicidal effect rating, O: lambsquarters (lambsquarters [19]): 0 (Herbicidal rate of 5% or less (almost no effect)); herbicidal effect rating, M: velvetleaf (velvetleaf [20]): 0 (Herbicidal rate of 5% or less (almost no effect)); herbicidal effect grade, L: windgrass (windgrass [21]): 0 (Herbicidal rate of 5% or less (almost no effect)); herbicidal effect rating, L: windgrass (windgrass [22]): 0 (Herbicidal rate of 5% or less (almost no effect)); herbicidal effect on H (barnyard grass), rating 0-5 (barnyard grass [23]): 4 (Herbicidal rate of 70% or more and less than 90%); herbicidal effect grade, O: lambsquarters (lambsquarters [24]): 0 (Herbicidal rate of 5% or less (almost no effect)); herbicidal effect grade, R: persian speedwell (persian speedwell [25]): 4 (Herbicidal rate of 70% or more and less than 90%); herbicidal effect rating, N: redroot pigweed (redroot pigweed [26]): 0 (Herbicidal rate of 5% or less (almost no effect)); herbicidal effect grade, J: blackgrass (blackgrass [27]): 0 (Herbicidal rate of 5% or less (almost no effect)) |
